Measured values published in patent US20090042964A1, “AMINO-5-[SUBSTITUTED-4-(DIFLUOROMETHOXY)PHENYL]-5-PHENYLIMIDAZOLONE COMPOUNDS AS BETA-SECRETASE INHIBITORS” (Wyeth, priority 2007, published 2009).

Molecular target: human BACE1 (Homo sapiens, UniProt P56817)
Test: Fluorescent kinetic assay, evaluation of BACE1 binding affinity of test compounds
Assay type: biochemical
Settings: 10 nM human BACE1, 25 μM substrate WABC-6, pH 4.5, room temperature; read-out: BACE1 IC50
Method: Concentration is determined by absorbance at 354 nm using an extinction coefficient of 18172 M^-1 cm^-1, the concentration of stock substrate is corrected, and the substrate stock stored in small aliquots in -80° C. […] Determination of Stock Enzyme Concentration: the stock concentration of each enzyme is determined by absorbance at 280 nm using an of 64150 M^-1 cm^-1 for hBACE1 and MuBACE1, 62870 M^-1 cm^-1 for hBACE2 in 6 M Guanidinium Hydrochloride (from Research Organics, Cat. # 5134G-2), pH 6. […] Biochem. 182, 319-326). Dilution and mixing steps: total reaction volume: 100 μL 2× inhibitor dilutions in buffer A (66.7 mM Na-Acetate, pH 4.5, 0.0667% CHAPS) were prepared, 4× enzyme dilution in buffer A (66.7 mM Na-Acetate, pH 4.5, 0.0667% CHAPS) were prepared, 100 μM substrate dilution in 1×PBS was prepared, and 50 μL 2× Inhibitor, 25 μL 100 μM substrate are added to each well of 96-well plate (from DYNEX Technologies, VWR #: 11311-046), immediately followed by 25 μL 4× enzyme (added to the inhibitor and substrate mix), and the fluorescence readings are initiated.

Sequence of human BACE1 (P56817 46-501): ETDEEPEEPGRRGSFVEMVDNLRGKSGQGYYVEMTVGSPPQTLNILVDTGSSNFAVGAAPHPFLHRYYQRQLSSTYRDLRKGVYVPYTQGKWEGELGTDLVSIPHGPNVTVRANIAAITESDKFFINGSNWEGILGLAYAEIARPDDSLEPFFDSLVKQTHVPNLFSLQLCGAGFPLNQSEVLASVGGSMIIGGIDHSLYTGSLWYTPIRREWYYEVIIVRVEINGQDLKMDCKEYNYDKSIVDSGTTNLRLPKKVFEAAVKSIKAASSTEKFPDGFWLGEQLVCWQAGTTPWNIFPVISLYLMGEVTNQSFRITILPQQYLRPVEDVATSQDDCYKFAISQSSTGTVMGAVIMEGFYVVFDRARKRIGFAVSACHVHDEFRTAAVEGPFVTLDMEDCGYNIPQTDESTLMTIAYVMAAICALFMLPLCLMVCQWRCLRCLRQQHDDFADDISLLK

| Compound | IC50 |
| --- | --- |
| Cc1cc(C2(c3cccc(/C=C/CCF)c3)N=C(N)N(C)C2=O)ccc1OC(F)F (stereo not drawn) [Example 63, 2-Amino-5-[4-(difluoromethoxy)-3-methylphenyl]-5-[3-((E)-4-fluorobut-1-enyl)phenyl]-3-methyl-3,5-dihydro-4H-imidazol-4-one] | < 100 nM |
| COCC/C=C/c1cccc(C2(c3ccc(OC(F)F)c(C)c3)N=C(N)N(C)C2=O)c1 (stereo not drawn) [Example 64, 2-Amino-5-[4-(difluoromethoxy)-3-methylphenyl]-5-[3-((E)-4-methoxybut-1-enyl)phenyl]-3-methyl-3,5-dihydro-4H-imidazol-4-one] | < 100 nM |
| C/C=C/c1cccc(C2(c3ccc(OC(F)F)c(Cl)c3)N=C(N)N(C)C2=O)c1 (stereo not drawn) [Example 65, 2-Amino-5-[3-chloro-4-(difluoromethoxy)phenyl]-3-methyl-5-[((E)-3-prop-1-enyl)phenyl]-3,5-dihydro-4H-imidazol-4-one] | < 100 nM |
| COC/C=C/c1cccc(C2(c3ccc(OC(F)F)c(Cl)c3)N=C(N)N(C)C2=O)c1 (stereo not drawn) [Example 66, 2-Amino-5-[3-chloro-4-(difluoromethoxy)phenyl]-5-[3-((E)-3-methoxyprop-1-enyl)phenyl]-3-methyl-3,5-dihydro-4H-imidazol-4-one] | < 100 nM |
| COCC/C=C/c1cccc(C2(c3ccc(OC(F)F)c(Cl)c3)N=C(N)N(C)C2=O)c1 (stereo not drawn) [Example 67, 2-Amino-5-[3-chloro-4-(difluoromethoxy)phenyl)-5-[3-((E)-4-methoxybut-1-enyl)phenyl]-3-methyl-3,5-dihydro-4H-imidazol-4-one] | < 100 nM |
| CN1C(=O)C(c2cccc(/C=C/CCF)c2)(c2ccc(OC(F)F)c(Cl)c2)N=C1N (stereo not drawn) [Example 68, 2-Amino-5-[3-chloro-4-(difluoromethoxy)phenyl)-5-[3-((E)-4-fluoro-but-1-enyl)phenyl]-3-methyl-3,5-dihydro-4H-imidazol-4-one] | < 100 nM |
| COCC#Cc1cccc([C@@]2(c3ccc(OC(F)F)c(C)c3)N=C(N)N(C)C2=O)c1 [Example 69, (5S)-2-Amino-4-(4-(difluoromethoxy)-3-methylphenyl)-4-(3-(3-methoxyprop-1-ynyl)phenyl)-1-methyl-1H-imidazol-5(4H)-one] | < 100 nM |
| COCC#Cc1cccc([C@]2(c3ccc(OC(F)F)c(C)c3)N=C(N)N(C)C2=O)c1 [Example 70, (5R)-2-Amino-4-(4-(difluoromethoxy)-3-methylphenyl)-4-(3-(3-methoxyprop-1-ynyl)phenyl)-1-methyl-1H-imidazol-5(4H)-one] | 110 to 1000 nM |
| Cc1cc(C2(c3ccc(OC(F)F)c(C)c3)N=C(N)N(C)C2=O)ccc1OC(F)F [Example 71, 2-Amino-5,5-bis-[4-(difluoromethoxy)-3-methylphenyl]-3-methyl-3,5-dihydro-4H-imidazol-4-one] | 110 to 1000 nM |
| CN1C(=O)C(c2ccccc2)(c2ccc(OC(F)F)c(CCF)c2)N=C1N (stereo not drawn) [Example 74, 2-amino-5-[4-(difluoromethoxy)-3-(2-fluoroethyl)phenyl]-3-methyl-5-phenyl-3,5-dihydro-4H-imidazol-4-one] | 110 to 1000 nM |
| Cc1cccc(C2(c3ccc(OC(F)F)c(C)c3)N=C(N)N(C)C2=O)c1 (stereo not drawn) [Example 77, 2-amino-5-[4-(difluoromethoxy)-3-methylphenyl]-3-methyl-5-(3-methylphenyl)-3,5-dihydro-4H-imidazol-4-one] | 110 to 1000 nM |
| CCCC#Cc1cccc([C@@]2(c3ccc(OC(F)F)c(C)c3)N=C(N)N(C)C2=O)c1 [Example 78, (5S)-2-amino-5-[4-(difluoromethoxy)-3-methylphenyl]-3-methyl-5-(3-pent-1-yn-1-ylphenyl)-3,5-dihydro-4H-imidazol-4-one] | < 100 nM |
| CCC#Cc1cccc(C2(c3ccc(OC(F)F)c(C)c3)N=C(N)N(C)C2=O)c1 (stereo not drawn) [Example 81, 2-amino-4-(3-(but-1-ynyl)phenyl)-4-(4-(difluoromethoxy)-3-methylphenyl)-1-methyl-1H-imidazol-5(4H)-one] | < 100 nM |
| CCC#Cc1cc(C2(c3ccc(OC(F)F)c(C)c3)N=C(N)N(C)C2=O)ccc1F (stereo not drawn) [Example 82, 2-amino-5-(3-but-1-yn-1-yl-4-fluorophenyl)-5-[4-(difluoromethoxy)-3-methylphenyl]-3-methyl-3,5-dihydro-4H-imidazol-4-one] | < 100 nM |
| CN1C(=O)C(c2ccc(F)c(OCCCF)c2)(c2ccc(OC(F)F)c(C3CC3)c2)N=C1N (stereo not drawn) [Example 85, 2-amino-5-[3-cyclopropyl-4-(difluoromethoxy)phenyl]-5-[4-fluoro-3-(3-fluoropropoxy)phenyl]-3-methyl-3,5-dihydro-4H-imidazol-4-one] | < 100 nM |
| CCCC#Cc1cc(C2(c3ccc(OC(F)F)c(CCF)c3)N=C(N)N(C)C2=O)ccc1F (stereo not drawn) [Example 88, 2-amino-5-[4-(difluoromethoxy)-3-(2-fluoroethyl)phenyl]-5-(4-fluoro-3-pent-1-yn-1-ylphenyl)-3-methyl-3,5-dihydro-4H-imidazol-4-one] | < 100 nM |
| CCC#Cc1cc(C2(c3ccc(OC(F)F)c(CCF)c3)N=C(N)N(C)C2=O)ccc1F (stereo not drawn) [Example 89, 2-amino-5-(3-but-1-yn-1-yl-4-fluorophenyl)-5-[4-(difluoromethoxy)-3-(2-fluoroethyl)phenyl]-3-methyl-3,5-dihydro-4H-imidazol-4-one] | < 100 nM |
| CC(C)CC#Cc1cc(C2(c3ccc(OC(F)F)c(CCF)c3)N=C(N)N(C)C2=O)ccc1F (stereo not drawn) [Example 90, 2-amino-5-[4-(difluoromethoxy)-3-(2-fluoroethyl)phenyl]-5-[4-fluoro-3-(4-methylpent-1-yn-1-yl)phenyl]-3-methyl-3,5-dihydro-4H-imidazol-4-one] | < 100 nM |
| CN1C(=O)C(c2ccc(F)c(C#CCCF)c2)(c2ccc(OC(F)F)c(CCF)c2)N=C1N (stereo not drawn) [Example 91, 2-amino-5-[4-(difluoromethoxy)-3-(2-fluoroethyl)phenyl]-5-[4-fluoro-3-(4-fluorobut-1-yn-1-yl)phenyl]-3-methyl-3,5-dihydro-4H-imidazol-4-one] | < 100 nM |
| CN1C(=O)C(c2ccc(F)c(C#CC3CC3)c2)(c2ccc(OC(F)F)c(CCF)c2)N=C1N (stereo not drawn) [Example 92, 2-amino-5-[3-(cyclopropylethynyl)-4-fluorophenyl]-5-[4-(difluoromethoxy)-3-(2-fluoroethyl)phenyl]-3-methyl-3,5-dihydro-4H-imidazol-4-one] | < 100 nM |
| CN1C(=O)C(c2ccc(F)c(O)c2)(c2ccc(OC(F)F)c(Cl)c2)N=C1N (stereo not drawn) [Example 95, 2-Amino-5-[3-chloro-4-(difluoromethoxy)phenyl]-5-(4-fluoro-3-hydroxyphenyl)-3-methyl-3,5-dihydro-4H-imidazol-4-one] | 110 to 1000 nM |
| CCOc1cc(C2(c3ccc(OC(F)F)c(Cl)c3)N=C(N)N(C)C2=O)ccc1F (stereo not drawn) [Example 96, 2-Amino-5-[3-chloro-4-(difluoromethoxy)phenyl]-5-(3-ethoxy-4-fluorophenyl)-3-methyl-3,5-dihydro-4H-imidazol-4-one] | < 100 nM |
| CCCOc1cc(C2(c3ccc(OC(F)F)c(Cl)c3)N=C(N)N(C)C2=O)ccc1F (stereo not drawn) [Example 97, 2-Amino-5-[3-chloro-4-(difluoromethoxy)phenyl]-5-(4-fluoro-3-propoxyphenyl)-3-methyl-3,5-dihydro-4H-imidazol-4-one] | < 100 nM |
| CN1C(=O)C(c2ccc(OC(F)F)c(Cl)c2)(c2ccc(F)c(OCCCF)c2)N=C1N (stereo not drawn) [Example 98, 2-Amino-5-[3-chloro-4-(difluoromethoxy)phenyl]-5-[4-fluoro-3-(3-fluoropropoxy)phenyl]-3-methyl-3,5-dihydro-4H-imidazol-4-one] | < 100 nM |
| CN1C(=O)C(c2ccc(OC(F)F)c(Cl)c2)(c2ccc(F)c(OCCF)c2)N=C1N (stereo not drawn) [Example 99, 2-Amino-5-[3-chloro-4-(difluoromethoxy)phenyl]-5-[4-fluoro-3-(2-fluoroethoxy)phenyl]-3-methyl-3,5-dihydro-4H-imidazol-4-one] | < 100 nM |
| CN1C(=O)C(c2ccc(OC(F)F)c(Cl)c2)(c2ccc(F)c(OCC(F)F)c2)N=C1N (stereo not drawn) [Example 100, 2-Amino-5-[3-chloro-4-(difluoromethoxy)phenyl]-5-[3-(2,2-difluoroethoxy)-4-fluorophenyl]-3-methyl-3,5-dihydro-4H-imidazol-4-one] | < 100 nM |
| CCOc1cc(C2(c3ccc(OC(F)F)c(C)c3)N=C(N)N(C)C2=O)ccc1F (stereo not drawn) [Example 101, 2-Amino-5-[4-(difluoromethoxy)-3-methylphenyl]-5-(3-ethoxy-4-fluorophenyl)-3-methyl-3,5-dihydro-4H-imidazol-4-one] | < 100 nM |
| Cc1cc(C2(c3ccc(F)c(OCC4CC4)c3)N=C(N)N(C)C2=O)ccc1OC(F)F (stereo not drawn) [Example 105, 2-Amino-5-[3-(cyclopropylmethoxy)-4-fluorophenyl]-5-[4-(difluoromethoxy)-3-methylphenyl]-3-methyl-3,5-dihydro-4H-imidazol-4-one] | < 100 nM |
| Cc1cc([C@]2(c3ccc(F)c(OCC4CC4)c3)N=C(N)N(C)C2=O)ccc1OC(F)F [Example 106, (5R)-2-Amino-5-[3-(cyclopropylmethoxy)-4-fluorophenyl]-5-[4-(difluoromethoxy)-3-methylphenyl]-3-methyl-3,5-dihydro-4H-imidazol-4-one] | < 100 nM |
| Cc1cc([C@@]2(c3ccc(F)c(OCC4CC4)c3)N=C(N)N(C)C2=O)ccc1OC(F)F [Example 107, (5S)-2-Amino-5-[3-(cyclopropylmethoxy)-4-fluorophenyl]-5-[4-(difluoromethoxy)-3-methylphenyl]-3-methyl-3,5-dihydro-4H-imidazol-4-one] | > 1000 nM |
